40 molecules from patent publication US12685312B2, “Sulfonamide apyrase inhibitors” (Texas Crop Science, Inc., priority 2022, dated 2026) can be followed below.

The structures appear in SMILES notation.

In the experiment the test system is apyrase. Description: Screen for apyrase inhibitors (Method 1, in vitro phosphate-release absorbance assay). Type of experiment: biochemical. As to conditions: inhibitor conc at 1 mM stock, 1 hr room temperature, absorbance 630 nm; rounded average of two assay results. The method, boiled down: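 Phosphate-release colorimetric assay (Windsor method) in 60 mM Hepes, 3 mM MgCl2, 3 mM CaCl2, 3 mM ATP, pH 6.5, with compound or DMSO control added. Released phosphate developed with ammonium molybdate and ascorbic acid/TCA, then stopped with citrate/acetic acid.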
Take `CC1Cc2ccccc2N1S(=O)(=O)c1cccc(C(=O)Nc2ccc(F)c([N+](=O)[O-])c2)c1` (stereo not shown) [I-242, N-(4-fluoro-3-nitrophenyl)-3-((2-methylindolin-1-yl)sulfonyl)benzamide]: the “% Inhibition of Apyrase” value is given as 69%.
For the molecule `CCN(C(=O)c1ccc(S(=O)(=O)N2CCCc3ccccc32)cc1)c1ccccc1` [I-885, 4-((3,4-dihydroquinolin-1(2H)-yl)sulfonyl)-N-ethyl-N-phenylbenzamide], the “% Inhibition of Apyrase” value is 47%.
As for `Cc1ccc2c(c1)CCCN2C(=O)c1cccc(S(=O)(=O)Nc2ccccc2F)c1` [I-574, N-(2-fluorophenyl)-3-(6-methyl-1,2,3,4-tetrahydroquinoline-1-carbonyl)benzenesulfonamide], the figure is 49%.
Next, `O=C(Nc1nc2ccccc2[nH]1)c1cccc(NS(=O)(=O)c2ccc3c(c2)OCCCO3)c1` [I-635, N-(1H-benzo[d]imidazol-2-yl)-3-((3,4-dihydro-2H-benzo[b][1,4]dioxepine)-7-sulfonamido)benzamide]: 58%.
As for `CCOc1ccc(NC(=O)c2ccc(NS(=O)(=O)c3ccccc3)cc2)cc1` [I-914, N-(4-ethoxyphenyl)-4-(phenylsulfonamido)benzamide], the figure is 59%; as for `Cc1ccc(S(=O)(=O)N(C)c2ccc(C(=O)Nc3ccccc3OC(F)F)cc2)cc1` [I-947, N-(2-(difluoromethoxy)phenyl)-4-((N,4-dimethylphenyl)sulfonamido)benzamide], 43%; as for `Cc1csc(NC(=O)c2cccc(NS(=O)(=O)c3ccccc3)c2)n1` [I-667, N-(4-methylthiazol-2-yl)-3-(phenylsulfonamido)benzamide], 12%.
In the case of `CSc1ncccc1C(=O)Nc1cccc(S(=O)(=O)N(C)c2ccccc2)c1` [I-743, N-(3-(N-methyl-N-phenylsulfamoyl)phenyl)-2-(methylthio)nicotinamide], the “% Inhibition of Apyrase” value was determined as 49%.
Regarding `O=C(Nc1cnccn1)c1cccc(NS(=O)(=O)c2ccccc2)c1` [I-670, 3-(phenylsulfonamido)-N-(pyrazin-2-yl)benzamide], the “% Inhibition of Apyrase” value was 6%.
As to `O=C(Nc1cccc([N+](=O)[O-])c1)c1ccc(Br)c(S(=O)(=O)Nc2ccccc2)c1` [I-34, 4-bromo-N-(3-nitrophenyl)-3-(N-phenylsulfamoyl)benzamide], the “% Inhibition of Apyrase” value turned out to be 18%.
Next, `Cc1ccccc1NC(=O)c1cccc(S(=O)(=O)N2c3ccccc3CC2C)c1` (stereo not shown) [I-466, 3-((2-methylindolin-1-yl)sulfonyl)-N-(o-tolyl)benzamide]: 59%; `COc1ccc(NC(=O)c2cccc(S(=O)(=O)Nc3ccc(Cl)cc3)c2)cc1` [I-246, 3-(N-(4-chlorophenyl)sulfamoyl)-N-(4-methoxyphenyl)benzamide]: 66%; `O=C(Nc1ccc(Cl)c(Cl)c1)c1ccc(NS(=O)(=O)c2ccc(F)c(F)c2)cc1` [I-926, N-(3,4-dichlorophenyl)-4-((3,4-difluorophenyl)sulfonamido)benzamide]: 56%.
For the molecule `O=C(Nc1cccc(C(F)(F)F)c1)c1cccc(S(=O)(=O)Nc2ccccc2F)c1` [I-285, 3-(N-(2-fluorophenyl)sulfamoyl)-N-(3-(trifluoromethyl)phenyl)benzamide], the “% Inhibition of Apyrase” value came to 17%.
Regarding `O=C(Nc1ccc(F)cc1Cl)c1ccc(S(=O)(=O)Nc2ccc(SC(F)F)cc2)cc1` [I-380, N-(2-chloro-4-fluorophenyl)-4-(N-(4-((difluoromethyl)thio)phenyl)sulfamoyl) benzamide], the “% Inhibition of Apyrase” value was 73%.
As for `O=C(c1cccc(S(=O)(=O)Nc2ccc(Br)cc2)c1)N1CCN(c2cccc(Cl)c2)CC1` [I-247, N-(4-bromophenyl)-3-(4-(3-chlorophenyl)piperazine-1-carbonyl)benzenesulfonamide], the figure is 65%; as for `O=C(Nc1ccc2c(c1)OCCCO2)c1ccc(Cl)c(S(=O)(=O)N2CCc3ccccc32)c1` [I-565, 4-chloro-N-(3,4-dihydro-2H-benzo[b][1,4]dioxepin-7-yl)-3-(indolin-1-ylsulfonyl)benzamide], 51%.
Consider `O=C(c1ccc(NS(=O)(=O)c2ccc3c(c2)OCCCO3)cc1)N1CCc2ccccc21` [I-923, N-(4-(indoline-1-carbonyl)phenyl)-3,4-dihydro-2H-benzo[b][1,4]dioxepine-7-sulfonamide], for which the “% Inhibition of Apyrase” value is recorded as 57%.
Next, `O=C(Nc1cccc(S(=O)(=O)Nc2ccc(Cl)cc2)c1)c1ccc(=O)n(Cc2ccccc2)n1` [I-737, 1-benzyl-N-(3-(N-(4-chlorophenyl)sulfamoyl)phenyl)-6-oxo-1,6-dihydropyridazine-3-carboxamide]: 53%; `O=C(Nc1ccc2c(c1)OCO2)c1ccc(S(=O)(=O)Nc2ccccc2F)cc1` [I-401, N-(benzo[d][1,3]dioxol-5-yl)-4-(N-(2-fluorophenyl)sulfamoyl)benzamide]: 41%; `Cc1nc2cc(NC(=O)c3cccc(S(=O)(=O)N4CCc5ccccc54)c3)ccc2o1` [I-587, 3-(indolin-1-ylsulfonyl)-N-(2-methylbenzo[d]oxazol-5-yl)benzamide]: 44%.
Next, `O=C(Nc1ccc2c(c1)OCO2)c1ccc(Cl)c(S(=O)(=O)N2CCc3ccccc32)c1` [I-562, N-(benzo[d][1,3]dioxol-5-yl)-4-chloro-3-(indolin-1-ylsulfonyl)benzamide]: 51%.
As for `Cc1ccc(NC(=O)c2ccc(NS(=O)(=O)c3ccc(F)cc3)cc2)cc1C` [I-918, N-(3,4-dimethylphenyl)-4-((4-fluorophenyl)sulfonamido)benzamide], the figure is 58%; as for `O=C(Nc1cc(Cl)ccc1NS(=O)(=O)c1ccccc1F)c1ccc(NC(=O)C2CC2)cc1` [I-834, N-(5-chloro-2-((2-fluorophenyl)sulfonamido)phenyl)-4-(cyclopropanecarboxamido)benzamide], 54%.
Take `CN(c1ccccc1)S(=O)(=O)c1ccccc1C(=O)Nc1ccc(Cl)cc1F` [I-355, N-(4-chloro-2-fluorophenyl)-2-(N-methyl-N-phenylsulfamoyl)benzamide]: the “% Inhibition of Apyrase” value worked out at 43%.
`O=C(Nc1ccc(N2CCOCC2)cc1)c1ccc(S(=O)(=O)N2CCCc3ccccc32)cc1` [I-895, 4-((3,4-dihydroquinolin-1(2H)-yl)sulfonyl)-N-(4-morpholinophenyl)benzamide]: the “% Inhibition of Apyrase” value amounted to 10%.
Next, `Cc1ccc(Cl)cc1NC(=O)c1ccc(S(=O)(=O)N2CCCc3ccccc32)cc1` [I-863, N-(5-chloro-2-methylphenyl)-4-((3,4-dihydroquinolin-1(2H)-yl)sulfonyl)benzamide]: 59%; `O=C(Nc1ccc2c(c1)OCCO2)c1cccc(S(=O)(=O)N2CCc3ccccc32)c1` [I-523, N-(2,3-dihydrobenzo[b][1,4]dioxin-6-yl)-3-(indolin-1-ylsulfonyl)benzamide]: 55%.
Next, `COc1ccc(C(CNC(=O)c2cccc(S(=O)(=O)Nc3ccc(Br)cc3)c2)N(C)C)cc1` (stereo not shown) [I-279, 3-(N-(4-bromophenyl)sulfamoyl)-N-(2-(dimethylamino)-2-(4-methoxyphenyl)ethyl)benzamide]: 42%.
As to `Cc1ccnc(NC(=O)c2cccc(NS(=O)(=O)c3ccc4c(c3)OCCCO4)c2)c1` [I-663, 3-((3,4-dihydro-2H-benzo[b][1,4]dioxepine)-7-sulfonamido)-N-(4-methylpyridin-2-yl)benzamide], the “% Inhibition of Apyrase” value turned out to be 25%.
Next, `Cc1nc2cc(NC(=O)c3cccc(NS(=O)(=O)c4cccs4)c3)ccc2o1` [I-664, N-(2-methylbenzo[d]oxazol-5-yl)-3-(thiophene-2-sulfonamido)benzamide]: 24%; `COc1ccccc1N(C)S(=O)(=O)c1ccc(C(=O)N2CCCc3ccccc32)cc1` [I-877, N-(2-methoxyphenyl)-N-methyl-4-(1,2,3,4-tetrahydroquinoline-1-carbonyl)benzenesulfonamide]: 54%.
`CCOc1ccccc1NC(=O)c1ccc(Cl)c(S(=O)(=O)N2CCc3ccccc32)c1` [I-434, 4-chloro-N-(2-ethoxyphenyl)-3-(indolin-1-ylsulfonyl)benzamide]: the “% Inhibition of Apyrase” value stood at 65%.
As for `Cc1ccc(C(=O)Nc2cccc(NS(=O)(=O)c3ccccc3)c2)cc1[N+](=O)[O-]` [I-347, 4-methyl-3-nitro-N-(3-(phenylsulfonamido)phenyl)benzamide], the figure is 52%; as for `Cc1cccc(NC(=O)c2ccc(NS(=O)(=O)c3ccc4c(c3)OCCO4)cc2)c1` [I-949, 4-((2,3-dihydrobenzo[b][1,4]dioxine)-6-sulfonamido)-N-(m-tolyl)benzamide], 42%; as for `COc1ncccc1C(=O)Nc1cccc(S(=O)(=O)Nc2ccc(Cl)cc2)c1` [I-733, N-(3-(N-(4-chlorophenyl)sulfamoyl)phenyl)-2-methoxynicotinamide], 54%.
As for `O=C(Nc1ccc(OC(F)F)cc1)c1ccc(NS(=O)(=O)c2ccccc2)cc1` [I-952, N-(4-(difluoromethoxy)phenyl)-4-(phenylsulfonamido)benzamide], the figure is 36%.
On to `Cc1ccc(F)c(NC(=O)c2ccc(NS(=O)(=O)c3ccccc3)cc2)c1` [I-955, N-(2-fluoro-5-methylphenyl)-4-(phenylsulfonamido)benzamide], for which the “% Inhibition of Apyrase” value was determined as 23%.
As for `O=C(c1ccc(S(=O)(=O)Nc2ccccc2)cc1)N1CCc2ccccc21` [I-860, 4-(indoline-1-carbonyl)-N-phenylbenzenesulfonamide], the figure is 71%.
As for `COc1ccc(C(=O)Nc2cccc(S(=O)(=O)Nc3nccs3)c2)cc1[N+](=O)[O-]` [I-760, 4-methoxy-3-nitro-N-(3-(N-(thiazol-2-yl)sulfamoyl)phenyl)benzamide], the “% Inhibition of Apyrase” value amounted to 26%.
